Experimental data from patent publication US7347997B1, “Method of using a feedstuff additive” (priority 1998, dated 2008).
Read-outs that look alike come from different tables or passages of the source.

Experiments:
weaned piglets = conditions: pig, in vivo

SMILES | concentration without any adverse effect on the cell activity (chicken lymphocytes; checking after 28 and after 44 hours) [µg/mL] | concentration without apparent change of proliferation foci / no negative effects on the cell culture (chicken lymphocytes; checking after 20 hours, listed as DOM) [µg/mL] | concentration without apparent change of proliferation foci / no negative effects on the cell culture (chicken lymphocytes; checking after 20 hours, listed as deepoxymetabolite) [µg/mL] | FCR (weaned piglets) | Feedstuff intake/animal/day (weaned piglets) | Losses (total) (weaned piglets) | Weight increase/animal/day (weaned piglets) [g] | action on the cell culture (chicken lymphocytes) | concentration from which a marked adverse effect on the cell activity is present (chicken lymphocytes; checking after 20 hours) [µg/mL]
C=C1[C@@H]2O[C@@H]3C=C(C)C(=O)[C@@H](O)[C@]3(CO)[C@@]1(C)C[C@H]2O [DOM-1] | 58 | ≤ 58 | 58 |  |  |  |  |  | 
CC1=C[C@H]2O[C@@H]3[C@H](O)C[C@](C)([C@@]2(CO)[C@H](O)C1=O)[C@]31CO1 [DON, deoxynivalenol] |  |  |  | 1.79 | 226.3 | 0 | 126.2 | marked damage to the cells | ≥ 0.625
